Experimental findings from patent publication US5684003A, “5-HT4 receptor agonists” (Nisshin Flour Milling Co., Ltd., priority 1994, dated 1997) are described below.

SMILES strings stand for the structures. Where a name gives a salt, the structure may show the parent alone. Read-outs that look alike come from different tables or passages of the source.

In test [1] the target is T1, 5-HT4 receptors (Rattus norvegicus, UniProt Q62758).
T1 construct: from tissue; host or cells: rat oesophageal tunica muscularis mucosae
T1 sequence (Q62758 whole entry): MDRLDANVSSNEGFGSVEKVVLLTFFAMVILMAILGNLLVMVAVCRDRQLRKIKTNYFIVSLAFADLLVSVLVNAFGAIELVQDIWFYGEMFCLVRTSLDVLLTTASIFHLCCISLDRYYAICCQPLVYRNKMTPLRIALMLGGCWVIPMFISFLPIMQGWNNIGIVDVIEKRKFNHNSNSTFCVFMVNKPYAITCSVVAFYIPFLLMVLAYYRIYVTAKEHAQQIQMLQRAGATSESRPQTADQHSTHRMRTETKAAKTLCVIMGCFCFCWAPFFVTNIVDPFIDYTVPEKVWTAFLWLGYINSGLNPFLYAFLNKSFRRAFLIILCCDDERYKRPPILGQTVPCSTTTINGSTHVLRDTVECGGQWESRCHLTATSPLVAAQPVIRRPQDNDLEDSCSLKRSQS
Nature of the test: Relaxation of carbachol-contracted rat oesophageal tunica muscularis mucosae. It counts as cell-based. The method, then:
The agonistic activity of oxazabicyclo derivatives and Mosapride on 5-HT4 receptors was determined by the procedure mentioned in Naunyn-Schmiedeberg's Arch Pharmacol (1991) 343:439-446.
The rat oesophageal tunica muscularis mucosae were suspended in organ both containing Krebs-Henseleit solution aerated with a mixed gas (95% O2, 5% CO2) and contracted with carbachol (1×10^-6 M). After the contraction was stabilized, the cumulative administration of the compounds was performed to determine the relaxation of the rat oesophagus pre-contracted with carbachol. The concentration (ED50) to cause 50% relaxation of the carbachol-induced contraction was measured. The result is expressed in terms of -log ED50 and shown in the following table in which higher numerical value indicates higher activity.

In test [2] the target is T2, 5-HT3 receptor (Rattus norvegicus, UniProt P35563).
T2 construct: from tissue; host or cells: whole anesthetized rat (in vivo); endogenous receptor
T2 sequence (P35563 24-483): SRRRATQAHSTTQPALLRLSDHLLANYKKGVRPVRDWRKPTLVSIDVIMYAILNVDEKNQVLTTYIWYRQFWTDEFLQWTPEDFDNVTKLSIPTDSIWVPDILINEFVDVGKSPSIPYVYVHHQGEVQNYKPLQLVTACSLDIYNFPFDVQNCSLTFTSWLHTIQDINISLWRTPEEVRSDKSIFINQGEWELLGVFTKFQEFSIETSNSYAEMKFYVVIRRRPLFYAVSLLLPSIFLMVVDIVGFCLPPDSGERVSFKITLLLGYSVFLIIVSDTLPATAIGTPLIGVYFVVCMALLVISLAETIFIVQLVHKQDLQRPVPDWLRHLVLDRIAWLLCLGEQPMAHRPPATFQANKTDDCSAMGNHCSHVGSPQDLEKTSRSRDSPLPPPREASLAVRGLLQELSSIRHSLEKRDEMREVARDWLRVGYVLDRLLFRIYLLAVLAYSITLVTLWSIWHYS
Kind of test: 5-HT3 receptor antagonist activity: inhibition of 2-Me-5-HT-induced reduction in heart rate in anesthetized rats. It counts as in vivo. Particulars: iv (jugular vein) 5 minutes before 2-Me-5-HT 0.1 mg/kg, read-out: IC50 (the source's name). As to the method: For the purpose of studying a receptor selectivity of the present compounds, the 5-HT3 receptor antagonist activity was tested in the following manner. Rats were anesthetized with urethane and heart rate was recorded through femoral artery. The 5-HT3 selective agonist, 2-methyl-5-hydroxytryptamine (2-Me-5-HT) was administered at 0.1 mg/kg through carotid arteries and transient reduction in heart rate was recorded. The test. compounds were administered through jugular vein at 5 minutes before the administration of 2-Me-5-HT, inhibitory rate of reduction in heart rate by the administration of 2-Me-5-HT was calculated and IC50 value was calculated from the inhibitory rate.

Test [3] has as its target 5-HT4 receptor (Cavia porcellus, UniProt O70528). Nature of the test: Increase in contraction height of electrically stimulated longitudinal muscle of isolated guinea pig ileum (LMMP). More on the design: key: +: indicates the increase in the contraction height; -: indicates no effect. The test is classed as cell-based. An excerpt: Ileum was excised from guinea pigs to prepare longitudinal muscle samples with approximately 2 cm length. The sample was suspended in Krebs-Henseleit liquid bath supplied with a mixed gas (95% O2, 5% CO2) and subjected to electrical stimulation (1 msec, 0.1 Hz) to record contraction force isometrically. The test compounds were. dissolved in distilled water or DMSO and tested at a concentration of 10^-7 M (but 10^-6 M for Compound 11). The results are shown by the presence or absence of the increase in the contraction height by electrical stimulation before administration of the compound, wherein the symbol "+" indicates the increase in the contraction height, while "-" indicates no effect.
Whether or not the action of the above compounds is that via activation of 5-HT4 receptors was investigated using as 5-HT4 receptor antagonist, SDZ 205-557 (2-methoxy-4-amino-5-chlorobenzoic acid 2-(diethylamino)ethyl ester) described in Naunyn-Schmiedeberg's Arch Pharmacol (1992) 345:387-393. Thus, the investigation as to whether SDZ 205-557 can antagonize the increase in the contraction height of the above compounds using the longitudinal muscle preparation of the isolated guinea pig ileum can reveal that such increase in the contraction height is the action via activation of 5-HT4 receptors.

Chain of 5-HT4 receptor (O70528 whole entry): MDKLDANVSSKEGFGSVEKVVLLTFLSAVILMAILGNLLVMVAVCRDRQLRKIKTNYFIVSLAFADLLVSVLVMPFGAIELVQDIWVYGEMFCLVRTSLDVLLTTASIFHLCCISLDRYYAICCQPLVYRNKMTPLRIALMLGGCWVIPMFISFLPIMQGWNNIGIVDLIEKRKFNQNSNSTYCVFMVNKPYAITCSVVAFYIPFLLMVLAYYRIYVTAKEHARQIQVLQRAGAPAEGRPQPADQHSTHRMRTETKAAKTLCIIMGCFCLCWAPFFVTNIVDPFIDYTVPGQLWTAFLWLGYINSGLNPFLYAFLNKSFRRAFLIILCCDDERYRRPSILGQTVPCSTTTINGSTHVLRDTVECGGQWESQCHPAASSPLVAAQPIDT

Regarding `CCCCN1[C@@H]2COC[C@H]1C[C@@H](NC(=O)c1nn(C(C)CC)c3ccccc13)C2` (relative stereo) [Example 8], in test [1], the EC50 was 631 nM. For the same compound, the ED50 in test [2] amounted to 0.0297 mg/kg. Further, in test [3] (test concentration 10^-7 M), the “LMMP: presence or absence of the increase in the contraction height by electrical stimulation” value is reported as “+”.

`CCCCN1[C@@H]2COC[C@H]1C[C@@H](NC(=O)c1nn(C(C)CCC)c3ccccc13)C2` (relative stereo) [Example 9, N-[endo-9-(n-Butyl)-3-oxa-9-azabicyclo[3.3.1]non-7-yl]-1-(2-pentyl)-indazole-3-carboxamide] had an EC50 in test [1] of 776 nM.

Compound `CC#CC(C)n1nc(C(=O)N[C@H]2C[C@H]3COC[C@@H](C2)N3CCCC)c2ccccc21` (relative stereo) [Example 17, N-[endo-9-(n-Butyl)-3-oxa-9-azabicyclo[3.3.1]non-7-yl]-1-(1-methyl-2-butynyl)indazole-3-carboxamide] gave an EC50 in test [1] of 2240 nM.

On to `CN1[C@@H]2COC[C@H]1C[C@@H](NC(=O)c1nn(C)c3ccccc13)C2` [Comparative Example 1, N-[endo-9-Methyl-3-oxa-9-azabicyclo[3.3.1]non-7-yl]-1-methylindazole-3-carboxamide, reference compound], for which the EC50 in test [1] (ED50 = concentration to cause 50% relaxation of contraction by carbachol (1×10^-6 M), cumulative administration, read-out: Activity (-log ED50) (converted)) was 115000 nM. Further, the “LMMP: presence or absence of the increase in the contraction height by electrical stimulation” value in test [3] (test concentration 10^-7 M) is reported as “-”.

Turning to `CC(C)n1nc(C(=O)N[C@H]2C[C@H]3COC[C@@H](C2)N3C)c2ccccc21` [Comparative Example 2, N-[endo-9-Methyl-3-oxa-9-azabicyclo[3.3.1]non-7-yl]-1-isopropylindazole-3-carboxamide, reference compound], in test [1], the EC50 was 1510 nM. Also, in test [2], the ED50 was 0.00032 mg/kg. Besides, the “LMMP: presence or absence of the increase in the contraction height by electrical stimulation” value in test [3] (test concentration 10^-7 M) is reported as “+”.

Consider `CCCCN1[C@@H]2COC[C@H]1C[C@@H](NC(=O)c1nn(CCC)c3ccccc13)C2` [Example 1, N-[endo-9-(n-Butyl)-3-oxa-9-azabicyclo[3.3.1]non-7-yl]-1-(n-propyl)indazole-3-carboxamide], for which, in test [1], the EC50 is 3800 nM.

Compound `CCCN1[C@@H]2COC[C@H]1C[C@@H](NC(=O)c1nn(C(C)C)c3ccccc13)C2` [Example 2, N-[endo-9-(n-Propyl)-3-oxa-9-azabicyclo[3.3.1]non-7-yl]-1-isopropyl-indazole-3-carboxamide] had an EC50 in test [1] of 2880 nM. The ED50 in test [2] is 0.0089 mg/kg. For the same compound, the “LMMP: presence or absence of the increase in the contraction height by electrical stimulation” value in test [3] (test concentration 10^-7 M) is “+”.

Turning to `CCCN1[C@@H]2COC[C@H]1C[C@@H](NC(=O)c1nn(C(CC)CC)c3ccccc13)C2` [Example 3, N-[endo-9-(n-Propyl)-3-oxa-9-azabicyclo[3.3.1]non-7-yl]-1-(3-pentyl)-indazole-3-carboxamide], the EC50 in test [1] was 1660 nM.

Turning to `CCCCN1[C@@H]2COC[C@H]1C[C@@H](NC(=O)c1nn(CC)c3ccccc13)C2` [Example 4, N-[endo-9-(n-Butyl)-3-oxa-9-azabicyclo[3.3.1]non-7-yl]-1-ethylindazole-3-carboxamide], the EC50 in test [1] is 10200 nM.

In turn, `CCCCN1[C@@H]2COC[C@H]1C[C@@H](NC(=O)c1nn(CCCC)c3ccccc13)C2` [Example 6, N-[endo-9-(n-Butyl)-3-oxa-9-azabicyclo[3.3.1]non-7-yl]-1-(n-butyl)-indazole-3-carboxamide] had an EC50 in test [1] of 4680 nM.

Consider `CCCCN1[C@@H]2COC[C@H]1C[C@@H](NC(=O)c1nn(CC(C)C)c3ccccc13)C2` [Example 7, N-[endo-9-(n-Butyl)-3-oxa-9-azabicyclo[3.3.1]non-7-yl]-1-isobutyl-indazole-3-carboxamide], for which, in test [1], the EC50 was 5250 nM.

`CCCCN1[C@@H]2COC[C@H]1C[C@@H](NC(=O)c1nn(C(CC)CC)c3ccccc13)C2` [Example 10, N-[endo-9-(n-Butyl)-3-oxa-9-azabicyclo[3.3.1.]non-7-yl]-1-(3-pentyl)indazole-3-carboxamide] had an EC50 in test [1] of 851 nM.

For `C=CCn1nc(C(=O)N[C@H]2C[C@H]3COC[C@@H](C2)N3CCCC)c2ccccc21` [Example 11, N-[endo-9-(n-Butyl)-3-oxa-9-azabicyclo[3.3.1]non-7-yl]-1-allyl-indazole-3-carboxamide], the EC50 in test [1] is 3550 nM. Moreover, the “LMMP: presence or absence of the increase in the contraction height by electrical stimulation” value in test [3] (test concentration 10^-6 M (Compound 11)) is listed as “+”.

Turning to `CCCCN1[C@@H]2COC[C@H]1C[C@@H](NC(=O)c1nn(CC=C(C)C)c3ccccc13)C2` [Example 12, N-[endo-9-(n-Butyl)-3-oxa-9-azabicyclo[3.3.1]non-7-yl]-1-(3-methyl-2-butenyl)indazole-3-carboxamide], the EC50 in test [1] was 6760 nM.

As to `CCCCN1[C@@H]2COC[C@H]1C[C@@H](NC(=O)c1nn(CC3CC3)c3ccccc13)C2` [Example 13, N-[endo-9-(n-Butyl)-3-oxa-9-azabicyclo[3.3.1]non-7-yl]-1-(cyclopropylmethyl)indazole-3-carboxamide], the EC50 in test [1] was 2090 nM. Moreover, the “LMMP: presence or absence of the increase in the contraction height by electrical stimulation” value in test [3] (test concentration 10^-7 M) was “+”.

In turn, `CCCCCN1[C@@H]2COC[C@H]1C[C@@H](NC(=O)c1nn(C(C)C)c3ccccc13)C2` [Example 14, N-[endo-9-(n-Pentyl)-3-oxa-9-azabicyclo[^3.3.1]non-7-yl]-1-isopropylindazole-3-carboxamide] showed an EC50 in test [1] of 1480 nM. The ED50 in test [2] amounted to 0.0281 mg/kg. For the same compound, the “LMMP: presence or absence of the increase in the contraction height by electrical stimulation” value in test [3] (test concentration 10^-7 M) is on record as “+”.

Compound `CCCCCN1[C@@H]2COC[C@H]1C[C@@H](NC(=O)c1nn(C(CC)CC)c3ccccc13)C2` [Example 15, N-[endo-9-(n-Pentyl)-3-oxa-9-azabicyclo[3.3.1]non-7-yl]-1-(3-pentyl)-indazole-3-carboxamide] had an EC50 in test [1] of 813 nM.

In test [1], `CCCCN1[C@@H]2COC[C@H]1C[C@@H](NC(=O)c1nn(C3CCCC3)c3ccccc13)C2` [Example 16, N-[endo-9-(n-Butyl)-3-oxa-9-azabicyclo[3.3.1]non-7-yl]-1-cyclopentyl-indazole-3-carboxamide] had an EC50 of 7760 nM.

In turn, `CCCCN1[C@@H]2COC[C@H]1C[C@@H](NC(=O)c1nn([C@@H](C)CC)c3ccccc13)C2` [Example 18, (S)-(+)-N-[endo-9-(n-Butyl)-3-oxa-9-azabicyclo[3.3.1]non-7-yl]-1-(sec-butyl)indazole-3-carboxamide] showed an EC50 in test [1] of 437 nM. For the same compound, in test [2], the ED50 amounted to 0.0183 mg/kg.

In the case of `CCCCN1[C@@H]2COC[C@H]1C[C@@H](NC(=O)c1nn([C@H](C)CC)c3ccccc13)C2` [Example 19, (R)-(-)-N-[endo-9-(n-Butyl)-3-oxa-9-azabicyclo[3.3.1]non-7-yl]-1-(sec-butyl)indazole-3-carboxamide], the EC50 in test [1] was 1050 nM.

`CCCCN1[C@@H]2COC[C@H]1C[C@@H](NC(=O)c1nn(C(C)C)c3ccc(O)cc13)C2` [Example 26, N-[endo-9-(n-Butyl)-3-oxa-9-azabicyclo[3.3.1]non-7-yl]-5-hydroxy-1-isopropylindazole-3-carboxamide (hydrochloride)]: in test [1], the EC50 is 10500 nM.

As for `CCCCN1[C@@H]2COC[C@H]1C[C@@H](NC(=O)c1nn(C(C)C)c3c(O)cccc13)C2` [Example 27, N-[endo-9-(n-Butyl)-3-oxa-9-azabicyclo[3.3.1]non-7-yl]-7-hydroxy-1-isopropylindazole-3-carboxamide (hydrochloride)], the EC50 in test [1] was 15800 nM.

Regarding `CC(C)n1nc(C(=O)N[C@H]2C[C@H]3COC[C@@H](C2)N3)c2ccccc21` [Example 28, N-[endo-3-Oxa-9-azabicyclo[3.3.1]non-7-yl]-1-isopropylindazole-3-carboxamide (hydrochloride)], the EC50 in test [1] is 468 nM.
